Legend:
[1] = tested on: human normal hair papilla cells HFDPC-C; assay: Cell growth test on hair papilla cells (neutral red method, living cell number vs purified water control); assay type: cell-based; details: for Growth rate control = 100: 72 hours culture; for Assessment: Table 1
Protocol: First, human normal hair papilla cells HFDPC-C (manufactured by Takara Bio Inc.) were obtained, and the hair papilla cells were then seeded at 0.2×10^4/dish in each well of a 96-well plate for cell culture (manufactured by Corning Inc.). Further, 200 μL of a basal medium (trade name: “Follicle Dermal Papilla Cell Basal Medium”, manufactured by Takara Bio Inc.) containing a growth factor accompanying the obtained hair papilla cells was supplied to each well, and the hair papilla cells were precultured in each well at 37° C. for 24 hours.
Next, the hair papilla cells were confirmed to be subconfluent, and the basal medium in each well was then replaced by 200 μL of another basal medium (trade name: “Follicle Dermal Papilla Cell Basal Medium”, manufactured by Takara Bio Inc.) free of the growth factor described above. In this way, hair papilla cells to be used for determining whether or not addition of the above-described samples promote cell growth were prepared.
To the hair papilla cells prepared as described above, amino acids, combinations of amino acids, peptides and collagen peptide mixtures which are the samples described above were added at final concentrations shown in Tables 1 and 2, and the hair papilla cells were cultured in each well at 37° C. for 72 hours. Here, to one of the wells containing the hair papilla cells prepared as described above, 20 μL, of purified water was added, and as with other hair papilla cells, culturing was performed at 37° C. for 72 hours to prepare a control test sample (control). Thereafter, for each of the hair papilla cells in the wells containing purified water or the samples, the number of living cells (living cell number) was counted by a neutral red method. Here, the “neutral red method” is a method in which neutral red is added at a final concentration of 150 μg/mL into a well where cells are cultured, the cells are cultured for 20 minutes, and washed with PBS (phosphate buffer physiological saline), 200 μL of a 50 mass % ethanol solution containing 1 mass % acetic acid is added into the well as an extraction liquid, the mixture is stirred, and the absorbance of the well containing the neutral red is measured at a wavelength of 540 nm to measure the number of living cells in the well.
The number of living cells of hair papilla cells in the well containing the sample with respect to the number of living cells of hair pallia cells in the well containing purified water (control test sample) was determined as a cell growth rate (%) to evaluate the hair papilla cell growth promoting action in the sample. Further, the cell growth rate (%) was subjected to statistical processing to evaluate significance of the hair papilla cell growth promoting action in the sample. […] Thereafter, the Student's t-test (t-test) was conducted to evaluate significance. […] In Tables 1 and 2, samples with “++” were determined to have a significance in the hair papilla cell growth promoting action. In samples with “+”, the cell growth rate (%) exceeded 100.

[2] = tested on: hairless mice; assay: Test for confirming hair development effect and hair growth effect using hairless mouse (visual amount of head hair); assay type: in vivo
Description: Thirty 8-week-old male and female hairless mice were provided by purchase from Hoshino Laboratory Animals, Inc. The hairless mice were divided into five groups each consisting of six mice with no regard to sex. Specifically, the plurality of groups consist of a normal group given a normal feed (trade name: “Labo MR Stock”, manufactured by Nosan Corporation), a control group given magnesium-deficient specialty feed (trade name: “HR-AD Feed”, manufactured by Nosan Corporation), a first group given a mixed feed obtained by adding Pro-Hyp at a content of 0.3 mass % to the magnesium-deficient specialty feed, a second group given a mixed feed obtained by adding the collagen peptide mixture A at a content of 5 mass % to the magnesium-deficient specialty feed, and a third group given a mixed feed obtained by adding a collagen peptide mixture C of the later-described composition at a content of 2.5 mass % to the magnesium-deficient specialty feed.
The heads of the hairless mice in the above-described groups were observed immediately after they were reared for 3 weeks to 11 weeks of age under the following conditions: the temperature was 23±2° C., the relative humidity was 55±10%, the lighting cycle was 12 hours, the light period started at 7:00 and ended at 19:00, and the mice were allowed to freely eat. […] At the time of obtaining the hairless mice, their heads had no hair.
Further, a 2-week-old hairless mouse before starting to lose its hair was obtained from Hoshino Laboratory Animals, Inc., and relative to the amount of head hair of the hairless mouse which is defined as 10, the amount of head hair of each of the 11-week-old hairless mice in each group was visually measured. […] Each of the values in the table represents an average of the amounts of head hair of the six hairless mice in each group.

proline-hydroxyproline [PO]
Hair papilla cell growth promoting action (in words) ([1]; conclusion from Tables 1, 2 and 4): had a hair papilla cell growth promoting action
Growth rate control = 100 ([1]; final concentration 0.05 mM): 126 ± 8%
Assessment ([1]; final concentration 0.05 mM): ++
Growth rate control = 100 ([1]; final concentration 0.5 mM): 127 ± 3%
Assessment ([1]; final concentration 0.5 mM): ++
Growth rate control = 100 ([1]; final concentration 5 mM): 129 ± 6%
Assessment ([1]; final concentration 5 mM): ++
Score (amount of head hair, 2-week-old hairless mouse = 10) ([2]; First group: 0.3 mass % in magnesium-deficient specialty feed, 3 weeks, 11-week-old hairless mice, average of six): 8
Effectiveness as hair growing agent (in words) ([2]; conclusion from Table 3): effective as hair growing agents
Hair development in the hair of head (FIG. 2 vs FIG. 1) ([2]; mixed feed with 0.3 mass % Pro-Hyp, 11-week-old hairless mice, compared with control group): hair development occurred in the hair of head
